Entries after “also recorded” stand apart in the source; their conditions may differ.
Experiments:
HCC1187 cells = test: PCR assay of XBP1 transcription; type: cell-based; conditions: Voruciclib 1.5 uM, Bortezomib 10 nM, 4 hours
Procedure: 1 ug of mRNA from each condition was used to generate cDNA using the High Capacity cDNA Reverse Transcription Kit (Applied Biosystems) and manufacturer's protocol. 100 ng cDNA was used to conduct a PCR assay to amplify XBP1 u or splice forms (Thermofisher PCR Supermix)—94 deg C. for 2 mins, (94 deg C. for 15 secs, 55 deg C. for 30 secs, 72 deg C. for 1 min)×30 cycles, 72 deg C. for 7 mins, hold at 4 deg C. XBP1 spiced and unspliced variants were detected.

38 different kinases = test: Comparison of inhibition profiles on 38 different kinases; type: biochemical; conditions: compared with flavopiradol
[1] = tested on: HCC1187 triple negative breast cancer (TNBC) xenograft model; test: CIVO microinjection, MCL-1 and CC3 staining; type: in vivo, mice; conditions: marker of apoptosis
Procedure: (§1) Mice were enrolled into CIVO drug studies when the tumor volume reached approximately 1000 mm^3. Microinjection studies were performed using the CIVO device as previously described (Klinghoffer et al, Science Translational Medicine 2015) The device was configured with 6 injection needles set for a 6 mm injection length and a total volume delivery of 3 μl. A fluorescent tracking marker (FTM) was added to each drug reservoir in vehicle for delivery along with each drug or drug combination. All micro-doses were equivalent to or lower than what would be allowed under FDA guidelines for Exploratory IND (Investigational New Drug) studies and by solubility of drug into vehicle. Total amounts of agents injected are tabulated below in Table 4.
A drug screen was performed to test multiple drugs simultaneously.
FIG. 11 depicts a similar experiment performed on the HCC1187 triple negative breast cancer (TNBC) xenograft model. […] Cells were then stained for CC3 expression (shown in red) as a marker of apoptosis.
FIGS. 20A-20D depicts the HCC1187 triple negative breast cancer (TNBC) xenograft model. Briefly, cells were treated with vehicle, voruciclib alone, ixazomib alone, or voruciclib and ixazomib in combination. Cells were then stained for CC3 expression (shown in red) as a marker of apoptosis.

ICK = ICK (Homo sapiens, UniProt Q9UPZ9); test: Kinase inhibition profile; type: biochemical
Sequence of ICK (Q9UPZ9 whole entry): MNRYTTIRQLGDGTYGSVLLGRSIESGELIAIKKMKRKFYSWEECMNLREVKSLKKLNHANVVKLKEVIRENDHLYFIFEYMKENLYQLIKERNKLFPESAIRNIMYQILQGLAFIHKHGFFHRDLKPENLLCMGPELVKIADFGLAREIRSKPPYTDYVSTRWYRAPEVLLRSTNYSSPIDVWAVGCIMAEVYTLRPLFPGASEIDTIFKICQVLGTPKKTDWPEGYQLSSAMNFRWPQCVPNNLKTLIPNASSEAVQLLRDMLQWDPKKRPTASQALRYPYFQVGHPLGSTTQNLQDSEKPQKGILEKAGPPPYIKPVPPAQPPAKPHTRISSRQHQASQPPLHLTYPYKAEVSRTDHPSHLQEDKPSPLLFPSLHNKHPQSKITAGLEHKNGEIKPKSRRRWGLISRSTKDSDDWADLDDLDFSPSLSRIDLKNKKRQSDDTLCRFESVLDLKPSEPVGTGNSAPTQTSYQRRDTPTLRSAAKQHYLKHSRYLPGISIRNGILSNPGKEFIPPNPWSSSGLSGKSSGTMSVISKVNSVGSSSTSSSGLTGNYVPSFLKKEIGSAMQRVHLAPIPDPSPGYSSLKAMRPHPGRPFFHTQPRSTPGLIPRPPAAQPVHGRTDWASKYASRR

[2] = tested on: NU-DHL-1 diffuse large B-cell lymphoma (DLBCL) cells; test: CIVO microinjection, staining for MCL-1 and cleaved caspase-3; type: in vivo, mice
Procedure: Mice were enrolled into CIVO drug studies when the tumor volume reached approximately 1000 mm^3. […] A fluorescent tracking marker (FTM) was added to each drug reservoir in vehicle for delivery along with each drug or drug combination. […] Total amounts of agents injected are tabulated below in Table 4.
The cells were stained for cleaved caspase-3 (CC3) (shown in red) as a marker of apoptosis.

[3] = Body weight in HCC1187 TNBC mouse model; conditions: in vivo
Procedure: (§2) Mice were enrolled for study when tumors reached an average volume of 150-200 mm^3. Tumor volume was calculated as V=length×width×height, all three dimensions measured using digital calipers along with body weight. Animals were removed from the study when—any one of the three measured dimensions of the tumor exceeding 2 cm, volume exceeding 2500 mm^3, ulceration or body weight loss greater than 20%.

SKM1 AML xenografts = test: Xenograft tumor growth; type: in vivo, NOD SCID; conditions: Voruciclib 200 mpk PO, ABT 199 10 mpk PO, 6 on/1 off; by day 22
Procedure: as §2

[4] = tested on: RIVA (activated B-cell, or ABC) model of DLBCL; test: Xenograft tumor growth; type: in vivo, NOD SCID mice; conditions: Voruciclib 200 mpk, Venetoclax 1 mpk
Procedure: Immune deficient NOD SCID mice were implanted with the RIVA (activated B-cell, or ABC) model of DLBCL. The xenografted tumors were allowed to grow in the NOD SCID host until they reached 200 mm^3, at which point the xenografted animals were randomized into 4 study groups: 1. Vehicle control; 2. […] Venetoclax at 1 mpk; and 4. […] Venetoclax was dosed by oral gavage on days 1 and 4 of each weekly cycle. Drug effects were assessed via tumor volume measurements twice weekly by a technician blinded to the treatment of each subject in the study. N=5-6 animals per treatment arm.

[5] = tested on: Ramos Burkitt's lymphoma cells; test: CIVO microinjection, cleaved caspase-3 staining; type: in vivo, mice; conditions: marker of apoptosis
Procedure: as §1
FIGS. 5A-5D show Ramos Burkitt's lymphoma cells stained for cleaved caspase-3 (CC3) (shown in red) as a marker of apoptosis.

RIvA DLBCL model = test: Western blot of treated cells; type: cell-based; conditions: increasing concentration of voruciclib, single agent
Procedure: Cell lines shown in Table 1, adherent or suspension, were treated in 6-well dishes or T10 flasks respectively, seeded at one million per ml density prior to treatment in total volumes of 3-10 ml. All agents used for in vitro cell treatments were formulated in water/DMSO to achieve required concentrations (as stated in respective figure labels/legends) with DMSO concentrations not exceeding 0.01%. Drug sources are indicated in table under ‘CIVO microinjection studies’. Cells were harvested at experimental time points: 2, 6, or 24 hours post treatment as indicated in respective figures, first by washing cells twice in ice-cold PBS in 15 ml falcon tubes, centrifugation at 1000 rpm for 5 mins followed by lysis of the respective cell pellets as described in section below. Note: Drug resistant NUDHL1 Dox 1000 nM and Toledo Dox 1000 nM cell lines were generated at Presage by culturing parental lines in media with stepwise increments in Doxorubicin concentration over several passages. […]
Protein lysates were prepared by adding ice-cold 1×RIPA Buffer (from 10×, Millipore) with 1×-3× Halt protease and phosphatase inhibitor cocktail (100×, Pierce) to cell pellets, followed by pulse sonication (˜3-5 secs) three times. […] Protein samples were quantified using Bradford assay (Biorad) at 1:10 or higher dilutions using appropriate blank controls with 1×RIPA. […]

CN1CC[C@@H](c2c(O)cc(O)c3c(=O)cc(-c4ccc(C(F)(F)F)cc4Cl)oc23)[C@@H]1CO (relative stereo) [voruciclib, (+)-trans-2-(2-Chloro-4-trifluoromethylphenyl)-5,7-dihydroxy-8-(2-hydroxymethyl-1-methylpyrrolidin-3-yl)-chromen-4-one]
bortezomib-induced transcriptional induction of XBP1 (HCC1187 cells): decreased | specificity for CDKs (38 different kinases): more specific for CDKs than flavopiradol | CC3 expression [1]: little to no increase | inhibition of ICK (ICK): does not show potent inhibition | expression of CC3 (cleaved caspase-3) ([2]; marker of apoptosis): slight increased; also recorded: slight effect | expression of MCL-1 ([2]; staining, versus vehicle): decreased | body weight of mice [3]: unaffected | normalized tumor volume (SKM1 AML xenografts): slightly lower | tumor size (images) [4]: smaller | average tumor volume ([4]; oral gavage): decrease in tumor volume | expression of CC3 [5]: slight increase | MCL-1 (RIvA DLBCL model): suppresses | apoptosis (cPARP) (RIvA DLBCL model): increases as the concentration of voruciclib increases
